Measured values as given in patent US20100210568A1, “T[…] HORMONE FOR […] APPLICATIONS” (priority 2007, published 2010).

Columns and labels:
[1] = system: CEM-SS cells; test: Cytotoxicity (MTS cell viability) in the HIV-1 assay; conditions: test peptide 10 micrograms per ml, MTS
[2] = system: HIV-1IIIB; test: HIV-1 antiviral assay (CPE reduction, MTS) in CEM-SS cells; assay type: cell-based; conditions: for antiviral activity of positive control compounds (in words): HIV-1 assay validity; for % CPE reduction in HIV-1 infected CEM-SS cells: test peptide 10 micrograms per ml, 6 days post-infection, MTS
[3] = system: HepG2-2.2.15 cells; test: Cytotoxicity (dye uptake cell viability) in the HBV assay; assay type: cell-based; conditions: % cell control
[4] = system: MRC-5 cells; test: Cytotoxicity testing in MRC-5 cells (CellTiter 96); assay type: cell-based, human; conditions: 6 days incubation
Protocol: (§1) Cells were split twic a week 1:2.
(§2) For cytotxicity testing, MRC-5 cells were seeded at 2,500 cells/well in 96 well plates using growth medium. […] The following day, peptide was added and tested in duplicates. After a 6 days incubation period, cell viability was measured using CellTiter 96 Solution (Promega). Plates were incubated for additional 4 hours at 37° C.

[5] = system: HCMV strain AD169; test: HCMV plaque reduction assay in MRC-5 cells; assay type: cell-based
From the text: as §1
Ganciclovir was used as positive control.

[6] = system: cyclic AMP generation in human peripheral blood mononuclear cells (PBMC); test: cAMP induction assay (ELISA); assay type: cell-based; conditions: 10 min at 37° C.; forskolin 50 micrograms per ml as positive control
Protocol: The cAMP kit was used as an immunoassay for the quantitative determination of cyclic AMP generation in human peripheral blood mononuclear cells (PBMC). PBMC were placed in 96-well microtitier plates (50 microliters of cells at 4×10^6/ml) and 50 microliters of medium alone (background control), forskolin (cAMP positive control; 50 micrograms per ml), or test peptide were added. Plates were mixed and incubated for 10 min at 37° C. and the cells were lysed by the addition of 50 microliters of 3% perchloric acid. NaOH was added to neutralize the samples. Plates were centrifuged for 15 min at 2500 rpm and the supernatants removed. The supernatants (diluted 2-fold in assay buffer) were then assayed for the levels of cAMP by ELISA.

[7] = Cytotoxicity testing in MRC-5 cells (CellTiter 96); assay type: cell-based, human; conditions: human, MRC-5 cells (embryonal lung fibroblasts), 6 days incubation, read-out: % Cell Viability
Protocol: as §1, §2

[8] = system: Human Peripheral Blood Mononuclear Cells (PBMC), B cell proliferation; test: B cell proliferation assay (SAC plus Interleukin-2, 3H-thymidine); assay type: cell-based; conditions: peptide 10 micrograms per ml; 3 days plus 12 hours 3H-thymidine
[9] = system: Tumor Necrosis Factor-α (TNF-α), spleen cells; test: Th1/Th2 cytokine profiling assay: TNF-α; assay type: cell-based, Balb/c mice; conditions: peptide 10 micrograms per ml; Ovalbumin restimulation 10 micrograms/ml; 72 hours
[10] = system: hepatitis B virus (HBV) ayw strain in HepG2-2.2.15 cells; test: HBV experimental assay system (secreted HBV DNA, TaqMan PCR); assay type: cell-based; conditions: test peptide 10 micrograms per ml; six days; HBV DNA in supernatant
[11] = system: A549 cells; test: Apoptosis prevention assay (C2 ceramide, Annexin-5); assay type: cell-based, human; conditions: peptide 10 micrograms per ml; 30 min pretreatment, then C2 ceramide
[12] = system: Interleukin-5 (IL-5), spleen cells; test: Th1/Th2 cytokine profiling assay: IL-5; assay type: cell-based, Balb/c mice; conditions: peptide 10 micrograms per ml; Ovalbumin restimulation 10 micrograms/ml; 72 hours
[13] = system: Interleukin-2 (IL-2), spleen cells; test: Th1/Th2 cytokine profiling assay: IL-2; assay type: cell-based, Balb/c mice; conditions: peptide 10 micrograms per ml; Ovalbumin restimulation 10 micrograms/ml; 72 hours
[14] = system: A549 cells; test: Cell cycle assay (propidium iodide, FACS); assay type: cell-based, human; conditions: peptide 10 micrograms per ml, 24 hours
[15] = Cytotoxicity (MTS cell viability) in the HIV-1 assay; conditions: human, CEM-SS cells
[16] = system: A549 cells; test: Apoptosis induction assay (Annexin-5); assay type: cell-based, human; conditions: peptide 10 micrograms per ml, 24 hours
[17] = system: MRSA; conditions: peptide 10 micrograms per ml, visual reading of growth
[18] = system: Interleukin-4 (IL-4), spleen cells; test: Th1/Th2 cytokine profiling assay: IL-4; assay type: cell-based, Balb/c mice; conditions: peptide 10 micrograms per ml; Ovalbumin restimulation 10 micrograms/ml; 72 hours
[19] = system: Human Peripheral Blood Mononuclear Cells (PBMC), T cell proliferation; test: T cell proliferation assay (PHA, 3H-thymidine); assay type: cell-based; conditions: peptide 10 micrograms per ml; 3 days plus 12 hours 3H-thymidine
[20] = Cytotoxicity (dye uptake cell viability) in the HBV assay; assay type: cell-based; conditions: human, HepG2-2.2.15 cells, % cell control
[21] = system: Streptococcus pneumoniae; test: Streptococcus pneumoniae assay; assay type: cell-based; conditions: peptide 10 micrograms per ml, visual reading of growth
[22] = system: HUVEC; test: Endothelial tube formation assay; assay type: cell-based, human; conditions: peptide 10 micrograms per ml; 20 hours
From the text: Positive control was vehicle only. […] Raw data were expressed as average tubule lenghs in pixels±standard deviation.

[23] = system: Interferon-γ (IFN-γ), spleen cells; test: Th1/Th2 cytokine profiling assay: IFN-γ; assay type: cell-based, Balb/c mice; conditions: peptide 10 micrograms per ml; Ovalbumin restimulation 10 micrograms/ml; 72 hours
[24] = system: Pseudomonas aeruginosa; test: Pseudomonas aeruginosa assay; assay type: cell-based; conditions: peptide 10 micrograms per ml, visual reading of growth
[25] = system: RAW 264.7 cells; test: Phagocytosis assay (Fluorescein-labeled Escherichia coli, flow cytometry); assay type: cell-based, mouse; conditions: peptide 10 micrograms per ml; 30 min preincubation, 60 min ingestion
Protocol: RAW 264.7 (Mouse leukaemic monocyte macrophage cell line) cells were obtained from ATCC and grown in RPMI 1640 medium containing 10% FBS. […] After the cells were incubated for additional 60 min at 37° C. and allowed to ingest the Fluorescein-labeled Escherichia coli bacteria, cells were fixed with 1% paraformaldehyde. The samples were then analyzed by flow cytometry to determine the amount of phagocytosis as a function of brightness (the greater the phagocytic activity, the more fluorescence in the macrophage population). Data are reported as % positive and the mean fluorescence intensity (MFI) of positively stained cells.

[26] = system: TNF alpha production in PBMC-derived macrophages; test: TNF alpha production assay (LPS-stimulated macrophages, ELISA); assay type: cell-based, human; conditions: peptide 10 micrograms per ml, 30 min; lipopolysaccharide 200 ng/ml; overnight
From the text: Not stimulated macrophages served as negative background control.

[27] = system: Primary Human endothelial cells (HUVEC); test: Endothelial cell migration assay; assay type: cell-based; conditions: peptide 10 micrograms per ml; 22 hours

Cc1cn([C@H]2C[C@H](N=[N+]=[N-])[C@@H](CO)O2)c(=O)[nH]c1=O [AZT]
% Cell viability [1]: 97% | antiviral activity of positive control compounds (in words) [2]: expected levels of antiviral activity | % CPE reduction in HIV-1 infected CEM-SS cells [2]: 99%

Nc1ccn([C@@H]2CS[C@H](CO)O2)c(=O)n1 [Compound 3TC, Lamivudine, reference compound]
% Cell viability [3]: 95.8%

Nc1nc(O)c2ncn(COC(CO)CO)c2n1 [Ganciclovir, reference compound]
% Cell viability [4]: 100% | antiviral activity of positive control compound (in words) ([5]; HCMV assay validity): expected levels of antiviral activity

CC(C)(C)NC(=O)[C@@H]1CN(Cc2cccnc2)CCN1C[C@@H](O)C[C@@H](Cc1ccccc1)C(=O)N[C@H]1c2ccccc2C[C@H]1O [Indinavir]
% Cell viability [1]: 93% | antiviral activity of positive control compounds (in words) [2]: expected levels of antiviral activity

NC(=O)[C@@H]1CCCN1C(=O)[C@H](Cc1cnc[nH]1)NC(=O)[C@@H]1CCC(=O)N1 [TRH, Pyr-His-Pro-NH2]
% of Forskolin (positive control) induced cAMP formation [6]: 0.0% | viability at 144 h [7]: 100% | % of SAC/IL2 induced control [8]: 106.0% | TNF-a spleen cells; TH1 response (% of control) [9]: 110.7 % of control | % plaque reduction ([5]; peptide 10 micrograms per ml, 7-10 days, MRC-5 cells): 0.0% | % inhibition of HBV replication in HEP G2 cells [10]: 3.3% | % prevention of ceramide induced apoptosis [11]: 17.2% | IL-5 spleen cells; TH2 response (% of control) [12]: 67.5 % of control | IL-2 spleen cells (% of control) [13]: 0.0 % of control | Cell cycle analysis G0/G1 [14]: 58.1 | Cell cycle analysis G2/M [14]: 10.7 | Cell cycle analysis S [14]: 31.3 | viability at 10 micrograms per ml [15]: 94.6% | % of induction [16]: 0.7% | % inhibition [17]: 0.0% | IL-4 spleen cells; TH2 response (% of control) [18]: 106.2 % of control | % of PHA induced Control [19]: 98.6% | viability at 144 h, 10 micrograms per ml [20]: 87.4% | % inhibition [21]: 0.0% | % inhibition of tube formation [22]: 7% | IFNγ spleen cells; TH1 response (% of control) [23]: 102.0 % of control | % inhibition [24]: 0.0% | % CPE reduction in HIV-1 infected CEM-SS cells [2]: 0.0% | % of control phagocytosis [25]: 131.4% | % of LPS induction [26]: 106.7% | % inhibition of migration [27]: −12%
